# Results as given in patent publication US5919823A, “Treatment of secondary movement disorders using large neutral amino acids” (The Research Foundation For Mental Hygiene, priority 1997, dated 1999).
# Like-named read-outs stand apart in the source and are kept apart here.
# Columns and labels:
# [1] = Plasma large neutral amino acid and phenylethylamine levels, fasting and 2 hours after protein challenge (Study Two); conditions: for Plasma level, Post-loading / Plasma LNAA Ratio, Post-loading: 2 hours after protein challenge; for Plasma level, Post-loading / Plasma level, Fasting / Plasma LNAA Ratio, Post-loading / Plasma LNAA Ratio, Fasting: mean ± SD
# Description: Blood samples were drawn from patients after an overnight fast and 2 hours after the ingestion of a protein challenge. This challenge was served in the form of a breakfast which consisted of orange juice, a cheese omelette, ham, a waffle and coffee.
# The blood samples were assayed for the levels of plasma large neutral amino acids; phenylalanine, tyrosine, tryptophan, alanine, isoleucine, leucine, valine, histidine, and threonine, and for the levels of phenylethylamine. The latter was also measured because it is a major metabolite of phenylalanine and considered to be a neuromodulator.
# The plasma amino acids, with the exception of tryptophan, were analyzed by phenylisothiocyanate (PITC) derivation followed by HPLC. The analysis of tryptophan was performed using HPLC with spectrofluormetric detection.
# The plasma values of the amino acids were studied both as actual levels and as the ratio of phenylalanine level to the level of the other large neutral amino acids in the plasma. This ratio serves as an index of the entry of phenylalanine into the brain, which accounts for the competition of the other large neutral amino acids (LNAA) with phenylalanine (Phe) at the blood brain barrier, as discussed. previously. This ratio is calculated as follows: [formula]
# [2] = tested on: serotonin receptors; conditions: animals; cited from earlier work
# [3] = in vivo; cited from earlier work
# [4] = cited from earlier work
# [5] = Multi-challenge study, videotaped TD movement counts (Study Four, Example 2); type: in vivo, male patients
# Description: A single patient was exposed over a period of several weeks to multiple dietary challenges, at the rate of one baseline day and one challenge day per week.
# The baseline days were Tuesdays and the challenge days were Wednesdays.
# On both Tuesdays and Wednesdays a videotaped evaluation procedure for TD was conducted and videotaped TD movement count sessions were held. These were 2 hours post-coffee on Tuesday and 2 hours post challenge on Wednesday. Movement counts were blindly rated from the videotapes by the present inventor.
# Evaluation sessions were conducted at the same time on both days with patients fasting (except for one cup of decaffeinated coffee) on the baseline days.
# A carbohydrate challenge breakfast; 223 grams of carbohydrates, 1369 calories, less than 4% protein.
# A 100 mg/kg challenge of Phe.
# A BCAA dietary supplement as follows:
# a) 2 patients had 209 mg/kg doses of BCAA powder given in orange juice
# The BCAA powder given in orange juice and in the flavored formulation at 150 mg/kg and 275 mg/kg consisted of 30 parts--valine, 30 parts-isoleucineand 40 parts-leucine.
# [6] = Phenylalanine challenge, Parkinsonism symptoms (Study Three, Example 4); type: in vivo, patients (psychotic males and females); conditions: 100 mg/kg
# Description: (§1) A third study (Study Three) was a large scale replication of Study Two with some improved technical methodology; most importantly, the switch from a protein challenge to a phenylalanine challenge and the weight standardization of the phenylalanine challenge (100 mg/kg). This investigation was conducted in 209 psychotic males and 103 psychotic females. […] This finding was independent of the age of the patient.
# (§2) As shown below, the data from this study has also enabled the present inventor to study the effect of the phenylalanine challenge on the symptom levels of Parkinsonism, akathisia and tardive dystonia. This information is important in justifying the usefulness of large neutral amino acid treatments for these disorders.
# 185 (59.3%) of the study patients made criterion for a case of Parkinsonism; […]. […] The large percentage (88.6%) of patients whose symptoms were impacted by the phenylalanine challenge supports the value of plasma large neutral amino acid manipulation in the treatment of this disorder. Further, as is seen in Table 3 below, this pattern of change was quite similar whether or not the patient had coexisting tardive dyskinesia. Though there is a case by case aspect to treatment success which makes prediction difficult, one can set forth some predictive generalizations as below. A further caveat is that because of the possible case of the worsening of a coexisting disorder the clinician must first treat the disorder that is causing the patient the most difficulty. Difficulty would be defined by some interaction between severity of symptom and disorder.
# [7] = Phenylalanine challenge, akathisia symptoms (Study Three, Example 4); type: in vivo, patients (psychotic males and females); conditions: 100 mg/kg
# Description: as §1, §2
# The large percentage (81.0%) of patients whose symptoms were impacted by the phenylalanine challenge supports the value of plasma large neutral amino acid manipulation in the treatment of this disorder. […] Patients without coexisting TD were more likely to show a higher level of symptom worsening than those with coexisting TD. As said for Parkinsonism, above, though it is the case that there is a case by case aspect to treatment success which makes prediction difficult, one can set forth some predictive generalizations as below: […]
# [8] = Phenylalanine challenge, tardive dystonia symptoms (Study Three, Example 4); type: in vivo, patients (psychotic males and females); conditions: 100 mg/kg
# Description: as §1, §2
# Thus, more than a majority of patients (57.9%) did respond to the phenylalanine challenge. […] Patients without coexisting TD were much more likely to improve their tardive dystonia symptom status after a phenylalanine challenge than patients with coexisting TD, while patients with coexisting TD were much more likely to show a higher level of symptom worsening than those without coexisting TD.
# [9] = Plasma phenylalanine response to phenylalanine challenge in TD-yes and TD-no patients (Study Three); type: in vivo, psychotic males and females; conditions: 100 mg/kg, TD Yes vs TD No patients
# Description: In this work (Study Two and Three) the plasma level tells us the actual level of phenylalanine in the blood and the phenylalanine/large neutral amino acid ratio gives us a marker relative to the other large neutral amino acids. This ratio thus provides information on brain levels of phenylalanine, or more specifically, the penetrance past the blood brain barrier of phenylalanine. This is so because it is known that phenylalanine competes with the other large neutral amino acids, such as tyrosine, tryptophan, isoleucine, leucine and valine for entry into the brain across the blood brain barrier.
# [10] = after challenge administration, most of the subjects; cited from earlier work
# [11] = of the large neutral amino acids; cited from earlier work
# [12] = in vivo; cited from earlier work; remark: listed apart in the source
# [13] = TD Symptom Persistence group (n = 15)
# [14] = TD Symptom Remission group (n = 15)
# [15] = 2 hours, ALL (n=185), listed as Phenylalanine
compound,measurement,setting,value
"NCCc1ccccc1 [phenylethylamine, reference compound]","Plasma level, Percent Change (Postloading/Fasting)",[1]; [13],+14.7%
same,"Plasma level, Post-loading",[1]; [13],95.1 ± 19.2 pg/mL
same,"Plasma level, Fasting",[1]; [13],82.9 ± 19.8 pg/mL
same,"Plasma level, Percent Change (Postloading/Fasting)",[1]; [14],+5.9%
same,"Plasma level, Post-loading",[1]; [14],92.7 ± 21.8 pg/mL
same,"Plasma level, Fasting",[1]; [14],87.5 ± 30.5 pg/mL
same,phenylethylamine level change,"[1]; persistence group, but not in remission group",significantly increased
same,motor effect,[2],produces a motor syndrome which can be blocked by serotonin antagonists
CN1CCN(C2=Nc3cc(Cl)ccc3Nc3ccccc32)CC1 [clozapine],movement disorder side-effects,[3],less likely to result in movement disorder side-effects
same,other side effects,[3],carries the risk of other serious life-threatening side effects
N[C@@H](Cc1c[nH]c2ccc(O)cc12)C(=O)O [5-hydroxytryptophan],effect on TD,"[4]; seven patients, concomitant administration with carbidopa",no change in TD
N[C@@H](Cc1ccccc1)C(=O)O [phenylalanine],percentage change in plasma level,[1]; in vivo,larger percentage changes
same,post challenge phenylalanine to LNAA ratio,[1]; in vivo,significantly higher
same,TD symptom change,"[5]; Patient B, coexisting TD and tardive dystonia",did not show a symptom increase
same,patients with an increase in TD symptom severity,[5]; after Phe challenge 100 mg/kg,three out of four
same,"increase in TD symptom severity, range over patients","[5]; after Phe challenge 100 mg/kg, three patients",69% to 440
same,patients with an increase in TD symptom severity,"[5]; after Phe challenge 100 mg/kg, listed as Phe",Three
same,patients whose Parkinsonism symptoms were impacted,[6]; 2 hours,88.6%
same,"Parkinsonism BETTER, %","[6]; 2 hours, ALL (n=185)",42.7%
same,"Parkinsonism BETTER, No.","[6]; 2 hours, ALL (n=185)",79 patients
same,"Parkinsonism NO CHANGE, %","[6]; 2 hours, ALL (n=185)",11.3%
same,"Parkinsonism NO CHANGE, No.","[6]; 2 hours, ALL (n=185)",21 patients
same,"Parkinsonism WORSE, %","[6]; 2 hours, ALL (n=185)",45.9%
same,"Parkinsonism WORSE, No.","[6]; 2 hours, ALL (n=185)",85 patients
same,"Parkinsonism WORSE, %","[6]; 2 hours, ALL (n=185), listed as Phe",46%
same,"Parkinsonism NO CHANGE, %",[6]; [15],11.4%
same,"Parkinsonism WORSE, %",[6]; [15],45.9%
same,"Parkinsonism BETTER, %",[6]; TD-NO (n=84),40.5%
same,"Parkinsonism BETTER, No.",[6]; TD-NO (n=84),34
same,"Parkinsonism NO CHANGE, %",[6]; TD-NO (n=84),13.1%
same,"Parkinsonism NO CHANGE, No.",[6]; TD-NO (n=84),11
same,"Parkinsonism WORSE, %",[6]; TD-NO (n=84),46.4%
same,"Parkinsonism WORSE, No.",[6]; TD-NO (n=84),39
same,"Parkinsonism BETTER, %",[6]; TD-YES (n=101),44.5%
same,"Parkinsonism BETTER, No.",[6]; TD-YES (n=101),45
same,"Parkinsonism NO CHANGE, %",[6]; TD-YES (n=101),9.9%
same,"Parkinsonism NO CHANGE, No.",[6]; TD-YES (n=101),10
same,"Parkinsonism WORSE, %",[6]; TD-YES (n=101),45.6%
same,"Parkinsonism WORSE, No.",[6]; TD-YES (n=101),46
same,patients whose akathisia symptoms were impacted,[7]; 2 hours,81.0%
same,"Akathisia BETTER, %","[7]; 2 hours, ALL (n=105)",33.4%
same,"Akathisia BETTER, No.","[7]; 2 hours, ALL (n=105)",35 patients
same,"Akathisia NO CHANGE, %","[7]; 2 hours, ALL (n=105)",19.0%
same,"Akathisia NO CHANGE, No.","[7]; 2 hours, ALL (n=105)",20 patients
same,"Akathisia WORSE, %","[7]; 2 hours, ALL (n=105)",47.6%
same,"Akathisia WORSE, No.","[7]; 2 hours, ALL (n=105)",50 patients
same,"Akathisia BETTER, %",[7]; TD-NO (n=42),23.8%
same,"Akathisia BETTER, No.",[7]; TD-NO (n=42),10
same,"Akathisia NO CHANGE, %",[7]; TD-NO (n=42),16.7%
same,"Akathisia NO CHANGE, No.",[7]; TD-NO (n=42),7
same,"Akathisia WORSE, %",[7]; TD-NO (n=42),59.5%
same,"Akathisia WORSE, No.",[7]; TD-NO (n=42),25
same,"Akathisia BETTER, %",[7]; TD-YES (n=63),39.7%
same,"Akathisia BETTER, No.",[7]; TD-YES (n=63),25
same,"Akathisia NO CHANGE, %",[7]; TD-YES (n=63),21.6%
same,"Akathisia NO CHANGE, No.",[7]; TD-YES (n=63),13
same,"Akathisia WORSE, %",[7]; TD-YES (n=63),39.7%
same,"Akathisia WORSE, No.",[7]; TD-YES (n=63),25
same,patients whose tardive dystonia responded to the phenylalanine challenge,[8]; 2 hours,57.9%
same,"Tardive dystonia BETTER, %","[8]; 2 hours, ALL (n=19)",21.0%
same,"Tardive dystonia BETTER, No.","[8]; 2 hours, ALL (n=19)",4 patients
same,"Tardive dystonia NO CHANGE, %","[8]; 2 hours, ALL (n=19)",42.1%
same,"Tardive dystonia NO CHANGE, No.","[8]; 2 hours, ALL (n=19)",8 patients
same,"Tardive dystonia WORSE, %","[8]; 2 hours, ALL (n=19)",36.9%
same,"Tardive dystonia WORSE, No.","[8]; 2 hours, ALL (n=19)",7 patients
same,"Tardive dystonia BETTER, %",[8]; TD-NO (n=5),60.0%
same,"Tardive dystonia BETTER, No.",[8]; TD-NO (n=5),3
same,"Tardive dystonia NO CHANGE, %",[8]; TD-NO (n=5),40.0%
same,"Tardive dystonia NO CHANGE, No.",[8]; TD-NO (n=5),2
same,"Tardive dystonia WORSE, %",[8]; TD-NO (n=5),0.0%
same,"Tardive dystonia WORSE, No.",[8]; TD-NO (n=5),none
same,"Tardive dystonia WORSE, No.","[8]; TD-NO (n=5), listed as Phenylalanine",0
same,"Tardive dystonia BETTER, %",[8]; TD-YES (n=14),7.1%
same,"Tardive dystonia BETTER, No.",[8]; TD-YES (n=14),1
same,"Tardive dystonia NO CHANGE, %",[8]; TD-YES (n=14),42.9%
same,"Tardive dystonia NO CHANGE, No.",[8]; TD-YES (n=14),6
same,"Tardive dystonia WORSE, %",[8]; TD-YES (n=14),50.0%
same,"Tardive dystonia WORSE, No.",[8]; TD-YES (n=14),7
same,plasma phenylalanine and phenylalanine/LNAA ratio after phenylalanine challenge,[9],statistically significant higher levels
same,time of peak phenylalanine plasma level,[10],2 h
same,affinity for the blood brain barrier,[11],highest affinity for the blood brain barrier
CC(C)NCC(O)COc1cccc2ccccc12 (centres unmarked) [propranolol],treatment of neuroleptic-induced akathisia,[12],successful in some patients
CC(C)[C@H](N)C(=O)O [valine],percentage change in plasma level,[1]; in vivo,larger percentage changes
same,valine/LNAA ratio change,[1]; in vivo,increased significantly
N[C@@H](Cc1ccc(O)cc1)C(=O)O [tyrosine],"Plasma LNAA Ratio, Percent Change (Postloading/Fasting)",[1]; [13],0%
same,"Plasma level, Percent Change (Postloading/Fasting)",[1]; [13],+23.1%
same,"Plasma LNAA Ratio, Post-loading",[1]; [13],0.103 ± 0.012
same,"Plasma level, Post-loading",[1]; [13],85.3 ± 22.6 nmol/mL
same,"Plasma LNAA Ratio, Fasting",[1]; [13],0.103 ± 0.012
same,"Plasma level, Fasting",[1]; [13],69.3 ± 14.8 nmol/mL
same,"Plasma LNAA Ratio, Percent Change (Postloading/Fasting)",[1]; [14],0%
same,"Plasma level, Percent Change (Postloading/Fasting)",[1]; [14],+30.1%
same,"Plasma LNAA Ratio, Post-loading",[1]; [14],0.090 ± 0.020
same,"Plasma level, Post-loading",[1]; [14],84.3 ± 23.5 nmol/mL
same,"Plasma LNAA Ratio, Fasting",[1]; [14],0.090 ± 0.022
same,"Plasma level, Fasting",[1]; [14],64.8 ± 17.1 nmol/mL
same,percentage change in plasma level,"[1]; symptom remission group vs persistence group, 30 males",larger percentage changes
NC(Cc1c[nH]c2ccccc12)C(=O)O [D-L tryptophan],effect on TD,[4]; 4 patients,no change in TD
N[C@@H](Cc1c[nH]c2ccccc12)C(=O)O [tryptophan],"decrease in tryptophan/LNAA ratio, greater in remittance group",[1]; in vivo,35%
same,magnitude of decrease in tryptophan/LNAA ratio,[1]; in vivo,significantly greater
same,effect on TD,[4]; two case reports,reduction of TD symptoms
